Consider eight compounds from patent publication US9708339B2, “1,3-benzothiazinone, sulfoxide, and sulfone compounds with electrophilic substituent” (priority 2014, dated 2017).

“Also recorded” adds a separate entry of the source. Like-named read-outs stand apart in the source and are kept apart here. A value given as a limit tells only on which side of the number the result lay.

The target of assay [1] is DprE1 (Mycobacterium tuberculosis, UniProt P9WJF0). Conditions: cited from earlier work.
Chain of DprE1 (P9WJF0 whole entry): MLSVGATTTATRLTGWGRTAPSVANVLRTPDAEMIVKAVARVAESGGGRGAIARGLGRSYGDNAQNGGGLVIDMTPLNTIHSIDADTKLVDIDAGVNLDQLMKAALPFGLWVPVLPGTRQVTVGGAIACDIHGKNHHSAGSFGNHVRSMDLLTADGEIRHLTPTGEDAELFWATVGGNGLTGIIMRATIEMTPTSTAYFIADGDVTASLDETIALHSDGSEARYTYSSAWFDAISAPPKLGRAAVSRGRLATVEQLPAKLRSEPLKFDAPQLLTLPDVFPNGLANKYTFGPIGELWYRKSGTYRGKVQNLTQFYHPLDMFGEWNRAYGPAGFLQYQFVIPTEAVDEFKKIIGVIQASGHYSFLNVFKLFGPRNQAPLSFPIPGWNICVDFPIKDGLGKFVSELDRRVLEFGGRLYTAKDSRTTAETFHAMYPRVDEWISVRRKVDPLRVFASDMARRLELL
Assay [2] relates to H37Rv strain of Mtb. In words: Microplate alamar blue assay (MABA), in vitro anti-TB activity in 7H12 and GAS media. The format is cell-based, Mycobacterium tuberculosis. Conditions: for MIC / percentage in brackets after MIC >1, 7H12 / percentage in brackets after MIC >1, GAS: H37Rv; for percentage in brackets after MIC >1, 7H12: 7H12 medium; for percentage in brackets after MIC >1, 7H12 / percentage in brackets after MIC >1, GAS: bracketed percentage not defined in the patent; for percentage in brackets after MIC >1, GAS: GAS medium; for activity against H37Rv strain of Mtb (in words): in vitro.

The mark [3] stands for this setting: 7H12 medium (7H9 plus casitone, palmitic acid, albumin and catalase), read-out: MABA:MIC 7H12.
[4] abbreviates: GAS (glycerol-alanine-salts) medium, read-out: MABA:MIC GAS.
[5] abbreviates: Mycobacterium tuberculosis, 7H12 medium (7H9 plus casitone, palmitic acid, albumin and catalase), read-out: MABA:MIC 7H12.
[6] abbreviates: Mycobacterium tuberculosis, GAS (glycerol-alanine-salts) medium, read-out: MABA:MIC GAS.

Take `O=c1nc(N2CCN(CC3CCCCC3)CC2)sc2c([N+](=O)[O-])cc(C(F)(F)F)cc12` [PBTZ169]: the “mode of DprE1 inhibition (in words)” value in assay [1] was “suicide inhibitor”.
As to `NNC(=O)c1ccncc1` [INH, reference compound], the results for the MIC in assay [2] (setting [3]) and in assay [2] (setting [4]) were 0.1 µM and 0.03 µM, respectively.
As for `CC1COC2(CCN(c3nc(=O)c4cc(C(F)(F)F)ccc4s3)CC2)O1` (centres unmarked) [Compound 8], the MIC in assay [2] (setting [3]) was more than 1 µM. Moreover, in assay [2], the “percentage in brackets after MIC >1, 7H12” value came out at 87%; the “percentage in brackets after MIC >1, GAS” value was found to be 36%; the “activity against H37Rv strain of Mtb (in words)” value was “not significantly active; also recorded: reduced”. Also, the MIC in assay [2] (setting [4]) is recorded as more than 1 µM.
As to `C[C@H]1COC2(CCN(c3nc(=O)c4cc(C(F)(F)F)cc(-n5cc(CN(C)C)nn5)c4s3)CC2)O1` [Compound 9], the MIC came out at 0.87 µM in assay [2] (setting [5]) and 0.95 µM in assay [2] (setting [6]).
As to `C[C@H]1COC2(CCN(c3nc(=O)c4cc(C(F)(F)F)cc(N)c4s3)CC2)O1` [Compound 6], the MIC in assay [2] (setting [3]) and in assay [2] (setting [4]) was more than 1 µM each time. In assay [2], the “percentage in brackets after MIC >1, 7H12” value was found to be 87%. Moreover, the “percentage in brackets after MIC >1, GAS” value in assay [2] came to 0%.
For the compound `C[C@H]1COC2(CCN(c3nc(=O)c4cc(C(F)(F)F)cc([N+](=O)[O-])c4s3)CC2)O1` [BTZ043, reference compound], the MIC in assay [2] (setting [5]) and in assay [2] (setting [6]) was less than 0.004 µM each time. Besides, the “mode of DprE1 inhibition (in words)” value in assay [1] was “suicide inhibitor”.
Consider `CO[C@H]1/C=C/O[C@@]2(C)Oc3c(C)c(O)c4c(O)c(c(/C=N/N5CCN(C)CC5)c(O)c4c3C2=O)NC(=O)/C(C)=C\C=C\[C@H](C)[C@H](O)[C@@H](C)[C@@H](O)[C@@H](C)[C@H](OC(C)=O)[C@@H]1C` [Rifampin, reference compound], for which the MIC came to 0.05 µM in assay [2] (setting [5]) and 0.04 µM in assay [2] (setting [6]).
In the case of `C[C@H]1COC2(CCN(c3nc(=O)c4cc(C(F)(F)F)cc(N=[N+]=[N-])c4s3)CC2)O1` [Compound 3], the MIC in assay [2] (setting [5]) was 0.47 µM; in assay [2] (setting [6]) it was 0.46 µM. Also, the “activity against H37Rv strain of Mtb (in words)” value was “outstanding activity; also recorded: impressive activity” in assay [2] and “impressive activity” in assay [2] (listed as BTZ-N3).

A word on the MIC: it is the smallest concentration in the dilution series that meets the test's criterion for growth inhibition.
